Results from US7427597B2, “Method of treating brain tissue damages” (Academia Sinica, priority 2005, dated 2008).
Where no end group is shown, it is not given here.

Experiment: Physiological parameters in ischemic rats
Format: in vivo
Details: SN treated vs saline treated rats, n=7
Text: Seven SN treated rats and seven-saline treated rats also had their physiological parameters measured.

TNEIVEEQYTPQSLATLESVFQELGKLTGPNNQ [SN, secretoneurin]
No difference: blood gases | blood glucose | serum electrolyte levels | systemic blood pressure
